What was measured:
Assay type in all cases: cell-based
[1] = target: T1, Toll-like receptor 8 (Homo sapiens) (UniProt Q9NR97); test: Agonist activity at human TLR8 expressed in HEK293 cells after 6 hrs by NFkappaB-luciferase reporter gene assay
T1 sequence (whole entry): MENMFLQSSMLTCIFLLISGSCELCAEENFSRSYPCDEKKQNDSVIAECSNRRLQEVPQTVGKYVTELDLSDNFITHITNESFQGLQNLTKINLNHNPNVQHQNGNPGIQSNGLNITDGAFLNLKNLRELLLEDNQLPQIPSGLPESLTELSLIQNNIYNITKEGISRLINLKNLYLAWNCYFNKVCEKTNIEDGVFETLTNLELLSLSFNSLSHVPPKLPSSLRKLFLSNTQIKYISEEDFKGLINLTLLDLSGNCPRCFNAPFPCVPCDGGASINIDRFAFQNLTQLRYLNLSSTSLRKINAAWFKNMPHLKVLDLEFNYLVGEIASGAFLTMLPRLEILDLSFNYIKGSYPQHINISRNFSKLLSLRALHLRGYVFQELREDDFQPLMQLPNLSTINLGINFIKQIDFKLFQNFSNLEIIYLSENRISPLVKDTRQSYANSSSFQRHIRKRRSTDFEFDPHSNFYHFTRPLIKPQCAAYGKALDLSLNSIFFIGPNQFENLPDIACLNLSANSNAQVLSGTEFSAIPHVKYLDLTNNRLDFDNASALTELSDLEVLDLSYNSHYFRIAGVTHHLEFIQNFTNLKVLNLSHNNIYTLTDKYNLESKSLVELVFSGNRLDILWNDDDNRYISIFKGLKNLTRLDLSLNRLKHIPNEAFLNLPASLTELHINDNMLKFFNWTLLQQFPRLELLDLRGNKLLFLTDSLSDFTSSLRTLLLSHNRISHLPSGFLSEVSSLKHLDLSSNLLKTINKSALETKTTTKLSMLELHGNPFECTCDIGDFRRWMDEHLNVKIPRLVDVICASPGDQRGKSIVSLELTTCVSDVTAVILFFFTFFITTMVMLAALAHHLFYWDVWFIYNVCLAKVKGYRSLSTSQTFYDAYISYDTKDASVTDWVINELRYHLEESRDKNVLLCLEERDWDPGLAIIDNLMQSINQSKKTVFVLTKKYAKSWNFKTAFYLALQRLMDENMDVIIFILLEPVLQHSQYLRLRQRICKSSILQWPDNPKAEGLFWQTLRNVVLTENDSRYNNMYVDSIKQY

[2] = target: T2, Toll-like receptor 7 (Homo sapiens) (UniProt Q9NYK1); test: Agonist activity at human TLR7 expressed in HEK293 cells after 6 hrs by NFkappaB-luciferase reporter gene assay
T2 sequence (whole entry): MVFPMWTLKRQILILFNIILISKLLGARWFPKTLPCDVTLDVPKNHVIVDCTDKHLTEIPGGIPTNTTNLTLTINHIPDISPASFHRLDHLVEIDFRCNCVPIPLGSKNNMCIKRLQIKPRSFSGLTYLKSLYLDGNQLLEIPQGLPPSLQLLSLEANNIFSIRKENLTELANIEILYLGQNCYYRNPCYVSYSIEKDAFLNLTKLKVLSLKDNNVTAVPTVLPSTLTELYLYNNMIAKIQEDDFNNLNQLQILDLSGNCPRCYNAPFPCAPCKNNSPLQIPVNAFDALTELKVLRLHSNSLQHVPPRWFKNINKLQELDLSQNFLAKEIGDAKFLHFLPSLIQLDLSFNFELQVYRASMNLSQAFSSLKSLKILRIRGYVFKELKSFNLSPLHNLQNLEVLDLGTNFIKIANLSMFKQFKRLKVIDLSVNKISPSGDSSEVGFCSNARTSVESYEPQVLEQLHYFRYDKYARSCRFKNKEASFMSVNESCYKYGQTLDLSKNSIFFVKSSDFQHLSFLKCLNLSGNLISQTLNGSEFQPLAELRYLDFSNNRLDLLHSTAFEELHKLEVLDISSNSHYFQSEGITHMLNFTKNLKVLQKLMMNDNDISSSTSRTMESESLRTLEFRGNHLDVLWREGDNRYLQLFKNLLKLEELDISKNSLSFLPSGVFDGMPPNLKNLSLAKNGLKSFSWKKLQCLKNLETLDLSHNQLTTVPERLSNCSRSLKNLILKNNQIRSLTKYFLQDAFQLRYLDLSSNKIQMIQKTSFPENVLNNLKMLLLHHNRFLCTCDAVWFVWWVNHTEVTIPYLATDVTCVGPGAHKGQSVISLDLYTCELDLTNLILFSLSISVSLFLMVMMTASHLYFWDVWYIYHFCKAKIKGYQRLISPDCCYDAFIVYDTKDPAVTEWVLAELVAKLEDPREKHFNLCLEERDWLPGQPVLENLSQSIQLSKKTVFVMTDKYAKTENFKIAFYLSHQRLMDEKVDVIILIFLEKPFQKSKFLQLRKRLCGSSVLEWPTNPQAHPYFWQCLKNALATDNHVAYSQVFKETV

[3] = Cytotoxicity against HEK293 cells transfected with the CMV-TLR7 construct assessed as reduction in cell viability after 6 hrs by ATPlite assay; conditions: human
[4] = target: T2, Toll-like receptor 7 (Homo sapiens); test: Agonist activity at TLR7 in human PBMC assessed as suppression of HCV replicon replication in human HuH7 luc/neo cells harboring RNA encoding bicistronic expression construct comprising wild type HCV type 1b NS3-NS5B regions exposed to conditioned media from compound treated PBMCs after 24 hrs by luciferase reporter gene assay

Compound	MEC [1] [µM]	MEC [2] [µM]	CC50 at 6 h [3] [µM]	MEC [4] [µM]
CCCCNc1nc(N)nc2c1CN(CCc1ccccc1)CC2	0.2	1.8	> 24	
CCCCNc1nc(N)nc2c1CN(C(=O)C1CCC1)CC2	0.4	0.8	> 24	0.23
CCCCNc1nc(N)nc2c1CN(Cc1ccc(C(C)(C)C)cc1)CC2	0.66	19	> 24	2.79
CCOCc1nc2c(N)nc3ccccc3c2n1CC(C)(C)O	0.3	0.1		
CCCCNc1nc(N)nc2c1CN(Cc1ccc(OC(F)(F)F)cc1)CC2	0.24	4.7	> 24	0.52
CCCCNc1nc(N)nc2c1CNCC2	7.2	> 25	> 24	
CCCCNc1nc(N)nc2c1CN(Cc1ccccc1Cl)CC2	0.05	1.5	> 24	0.15
CCCCNc1nc(N)nc2c1CN(Cc1cccc3ccccc13)CC2	0.43	1.3	> 24	0.43
CCCCNc1nc(N)nc2c1CN(C(=O)c1cc(C)on1)CC2	0.4	0.8	> 24	0.22
CCCCNc1nc(N)nc2c1CN(C(=O)c1cocn1)CC2	0.2	0.7	> 24	0.17
CCCCNc1nc(N)nc2c1CN(Cc1cccs1)CC2	0.14	2.5	> 24	0.16
CCCCNc1nc(N)nc2c1CN(Cc1ccc(-c3ccccc3)cc1)CC2	0.5	14	> 24	4.49
CCCCNc1nc(N)nc2c1CN(C(=O)c1scnc1C)CC2	5.6	13	> 24	2.23
CCCCNc1nc(N)nc2c1CN(C)CC2	0.03	9.6	> 24	
CCCCNc1nc(N)nc2c1CN(C(=O)c1ccccc1)CC2	1.4	1.5	> 24	
CCCCNc1nc(N)nc2c1CCN(C)C2	0.2	10	> 24	
CCCCNc1nc(N)nc2c1CN(Cc1ccccn1)CC2	0.07	3.3	> 24	0.14
CCCCNc1nc(N)nc2c1CN(C(=O)C(C)C)CC2	1.6	8.1	> 24	1.8
CCCCNc1nc(N)nc2c1CN(Cc1ccccc1)CC2	0.06	1.6	> 24	
CCCCNc1nc(N)nc2c1CN(C(C)=O)CC2	0.5	4.9	> 24	
CCCCNc1nc(N)nc2c1CN(C(=O)CC)CC2	0.4	2.3	> 24	0.53
CCCCNc1nc(N)nc2c1CN(Cc1ccco1)CC2	0.08	3.7	> 24	0.07
CCCCNc1nc(N)nc2c1CN(C(=O)c1csnn1)CC2	0.1	0.9	> 24	0.15

From ChEMBL document CHEMBL4265889, “Design and synthesis of tetrahydropyridopyrimidine based Toll-Like Receptor (TLR) 7/8 dual agonists” (Bioorg Med Chem Lett, 2018)
